Results from patent US11739074B2, “Ras inhibitors” (Revolution Medicines, Inc., priority 2019, dated 2023).
Like-named read-outs stand apart in the source and are kept apart here.

How the values were obtained:
Format in all cases: cell-based
AsPC-1 (K-Ras G12D) [1] = experiment: CellTiter-Glo cell viability assay, AsPC-1; settings: Homo sapiens, ASPC1, 120 h
In short: (§1)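 Viability is scored by CellTiter-Glo luminescence on day 5 of compound treatment, relative to vehicle (DMSO) wells set as 100%, with a four-parameter logistic fit.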

AsPC-1 (K-Ras G12D) [2] = experiment: Potency assay: pERK in AsPC-1 cells; settings: Homo sapiens
NCI-H358 (K-Ras G12C) = experiment: CellTiter-Glo cell viability assay, H358; settings: Homo sapiens, NCI-H358, 120 h
In short: as §1

[3] = AsPC-1, K-Ras G12D, 5-day treatment, read-out: AsPC-1 Cell Viability IC50
[4] = ASPC1, AsPC-1 cells, K-Ras G12D, read-out: pERK EC50 (AsPC-1 KRAS G12D)
[5] = NCI-H358, K-Ras G12C, 5-day treatment, read-out: H358 Cell Viability IC50
[6] = read-out: AsPC-1 Cell Viability IC50, AsPC-1, K-Ras G12D, 5-day treatment
[7] = ASPC1, read-out: pERK EC50 (AsPC-1 KRAS G12D)
[8] = read-out: H358 Cell Viability IC50, NCI-H358, K-Ras G12C, 5-day treatment

Row | Structure (SMILES) | IC50 (AsPC-1 (K-Ras G12D) [1]; [3]) | EC50 (AsPC-1 (K-Ras G12D) [2]; [4]) | IC50 (NCI-H358 (K-Ras G12C); [5]) | IC50 (AsPC-1 (K-Ras G12D) [1]; [6]) | EC50 (AsPC-1 (K-Ras G12D) [2]; [7]) | IC50 (NCI-H358 (K-Ras G12C); [8])
1 | CCn1c(-c2cccnc2[C@H](C)OC)c2c3cc(ccc31)-c1csc(n1)C[C@H](NC(=O)[C@H](C(C)C)N(C)C(=O)N1CC[C@@H](N(C)C(=O)[C@@H]3CN3)C1)C(=O)N1CCC[C@H](N1)C(=O)OCC(C)(C)C2 [Compound 227] | 1000 to 10000 nM | < 5000 nM | 10 to 100 nM | – | – | –
2 | CCn1c(-c2cccnc2[C@H](C)OC)c2c3cc(ccc31)-c1csc(n1)C[C@H](NC(=O)[C@H](C(C)C)N(C)C(=O)N1CC[C@H](N(C)C(=O)[C@H]3CN3)C1)C(=O)N1CCC[C@H](N1)C(=O)OCC(C)(C)C2 [Compound 228] | 100 to 1000 nM | < 5000 nM | 10 to 100 nM | – | – | –
3 | CCn1c(-c2cc(C3CCN(C)CC3)cnc2[C@H](C)OC)c2c3cc(ccc31)-c1cc(O)cc(c1)C[C@H](NC(=O)[C@H](C1CCCC1)N(C)C(=O)CN(C)C(=O)[C@H]1CN1)C(=O)N1CCC[C@H](N1)C(=O)OCC(C)(C)C2 [Compound 230] | 10 to 100 nM | < 5000 nM | 10 to 100 nM | – | – | –
4 | CCn1c(-c2cccnc2[C@H](C)OC)c2c3cc(ccc31)-c1cc(O)cc(c1)C[C@H](NC(=O)[C@H](C(C)C)N(C)C(=O)[C@H]1CCCN(C(=O)[C@@H]3CN3)C1)C(=O)N1CCC[C@H](N1)C(=O)OCC(C)(C)C2 [Compound 236] | 1000 to 10000 nM | < 5000 nM | < 10 nM | – | – | –
5 | CCn1c(-c2cccnc2[C@H](C)OC)c2c3cc(ccc31)-c1cc(O)cc(c1)C[C@H](NC(=O)[C@H](C(C)C)N(C)C(=O)[C@@]1(C)CCCN1C(=O)[C@H]1CN1)C(=O)N1CCC[C@H](N1)C(=O)OCC(C)(C)C2 [Compound 239] | 100 to 1000 nM | < 5000 nM | 10 to 100 nM | – | – | –
6 | CCn1c(-c2cccnc2[C@H](C)OC)c2c3cc(ccc31)-c1cc(O)cc(c1)C[C@H](NC(=O)[C@H](C(C)C)N(C)C(=O)[C@]1(C)CCCN1C(=O)[C@H]1CN1)C(=O)N1CCC[C@H](N1)C(=O)OCC(C)(C)C2 [Compound 243] | 100 to 1000 nM | < 5000 nM | 100 to 1000 nM | – | – | –
7 | CCn1c(-c2cccnc2[C@H](C)OC)c2c3cc(ccc31)-c1cc(O)cc(c1)C[C@H](NC(=O)[C@H](C(C)C)N(C)C(=O)[C@@H]1CO[C@H](C)CN1C(=O)[C@H]1CN1)C(=O)N1CCC[C@H](N1)C(=O)OCC(C)(C)C2 [Compound 248] | 100 to 1000 nM | < 5000 nM | 10 to 100 nM | – | – | –
8 | CCn1c(-c2cccnc2[C@H](C)OC)c2c3cc(ccc31)-c1cc(O)cc(c1)C[C@H](NC(=O)[C@H](C(C)C)N(C)C(=O)[C@@H]1CO[C@H](C)CN1C(=O)[C@@H]1CN1)C(=O)N1CCC[C@H](N1)C(=O)OCC(C)(C)C2 [Compound 249] | 10 to 100 nM | < 5000 nM | 10 to 100 nM | – | – | –
9 | CCn1c(-c2cccnc2[C@H](C)OC)c2c3cc(ccc31)-c1cc(O)cc(c1)C[C@H](NC(=O)[C@H](C(C)C)N(C)C(=O)CN(C)C(=O)[C@@]1(C)CN1)C(=O)N1CCC[C@H](N1)C(=O)OCC(C)(C)C2 [Compound 256] | – | – | – | 100 to 1000 nM | < 5000 nM | 10 to 100 nM
10 | CCn1c(-c2cccnc2[C@H](C)OC)c2c3cc(ccc31)-c1cc(O)cc(c1)C[C@H](NC(=O)[C@H](C(C)C)N(C)C(=O)CN(C)C(=O)[C@]1(C)CN1)C(=O)N1CCC[C@H](N1)C(=O)OCC(C)(C)C2 [Compound 257] | – | – | – | 100 to 1000 nM | < 5000 nM | 10 to 100 nM
11 | CCn1c(-c2cccnc2[C@H](C)OC)c2c3cc(ccc31)-c1cc(O)cc(c1)C[C@H](NC(=O)[C@H](C(C)C)N(C)C(=O)CN(C)C(=O)[C@@H]1N[C@@H]1C(F)(F)F)C(=O)N1CCC[C@H](N1)C(=O)OCC(C)(C)C2 [Compound 258] | – | – | – | 100 to 1000 nM | < 5000 nM | 10 to 100 nM
12 | CCn1c(-c2cccnc2[C@H](C)OC)c2c3cc(ccc31)-c1cc(O)cc(c1)C[C@H](NC(=O)[C@H](C(C)C)N(C)C(=O)CN(C)C(=O)[C@H]1N[C@H]1C(F)(F)F)C(=O)N1CCC[C@H](N1)C(=O)OCC(C)(C)C2 [Compound 259] | – | – | – | 100 to 1000 nM | < 5000 nM | 10 to 100 nM
13 | CCn1c(-c2cccnc2[C@H](C)OC)c2c3cc(ccc31)-c1cc(O)cc(c1)C[C@H](NC(=O)[C@H](C(C)C)N(C)C(=O)CN(C)C(=O)[C@@H]1N[C@H]1C(F)(F)F)C(=O)N1CCC[C@H](N1)C(=O)OCC(C)(C)C2 [Compound 260] | – | – | – | 100 to 1000 nM | < 5000 nM | 10 to 100 nM
14 | CCn1c(-c2cccnc2[C@H](C)OC)c2c3cc(ccc31)-c1cc(O)cc(c1)C[C@H](NC(=O)[C@H](C(C)C)N(C)C(=O)CN(C)C(=O)[C@H]1N[C@@H]1C(F)(F)F)C(=O)N1CCC[C@H](N1)C(=O)OCC(C)(C)C2 [Compound 261] | – | – | – | 100 to 1000 nM | < 5000 nM | < 10 nM
15 | CC[C@H]1N[C@H]1C(=O)N(C)CC(=O)N(C)[C@H](C(=O)N[C@H]1Cc2cc(O)cc(c2)-c2ccc3c(c2)c(c(-c2cccnc2[C@H](C)OC)n3CC)CC(C)(C)COC(=O)[C@@H]2CCCN(N2)C1=O)C(C)C [Compound 262] | – | – | – | 100 to 1000 nM | < 5000 nM | 10 to 100 nM
16 | CC[C@@H]1N[C@@H]1C(=O)N(C)CC(=O)N(C)[C@H](C(=O)N[C@H]1Cc2cc(O)cc(c2)-c2ccc3c(c2)c(c(-c2cccnc2[C@H](C)OC)n3CC)CC(C)(C)COC(=O)[C@@H]2CCCN(N2)C1=O)C(C)C [Compound 263] | – | – | – | 100 to 1000 nM | < 5000 nM | 10 to 100 nM
17 | CCn1c(-c2cccnc2[C@H](C)OC)c2c3cc(ccc31)-c1cc(O)cc(c1)C[C@H](NC(=O)[C@H](C(C)C)N(C)C(=O)CN(C)C(=O)[C@@H]1N[C@@H]1C(C)C)C(=O)N1CCC[C@H](N1)C(=O)OCC(C)(C)C2 [Compound 264] | – | – | – | 100 to 1000 nM | < 5000 nM | 10 to 100 nM
18 | CCn1c(-c2cccnc2[C@H](C)OC)c2c3cc(ccc31)-c1cc(O)cc(c1)C[C@H](NC(=O)[C@H](C(C)C)N(C)C(=O)CN(C)C(=O)[C@H]1N[C@H]1C(C)C)C(=O)N1CCC[C@H](N1)C(=O)OCC(C)(C)C2 [Compound 265] | – | – | – | 100 to 1000 nM | < 5000 nM | 10 to 100 nM
19 | CCn1c(-c2cccnc2[C@H](C)OC)c2c3cc(ccc31)-c1cc(O)cc(c1)C[C@H](NC(=O)[C@H](C(C)C)N(C)C(=O)CN(C)C(=O)[C@H]1CN1CCCOC(C)=O)C(=O)N1CCC[C@H](N1)C(=O)OCC(C)(C)C2 (stereo partly drawn) [Compound 266] | – | – | – | 100 to 1000 nM | < 5000 nM | < 10 nM
20 | CCn1c(-c2cccnc2[C@H](C)OC)c2c3cc(ccc31)-c1cc(O)cc(c1)C[C@H](NC(=O)[C@H](C(C)C)N(C)C(=O)CN(C)C(=O)[C@H]1CN1CC(=O)N(C)C)C(=O)N1CCC[C@H](N1)C(=O)OCC(C)(C)C2 (stereo partly drawn) [Compound 270] | – | – | – | 100 to 1000 nM | < 5000 nM | 10 to 100 nM
21 | CCn1c(-c2cccnc2[C@H](C)OC)c2c3cc(ccc31)-c1cc(O)cc(c1)C[C@H](NC(=O)[C@H](C(C)C)N(C)C(=O)CN(C)C(=O)[C@H]1CN1CCCC#N)C(=O)N1CCC[C@H](N1)C(=O)OCC(C)(C)C2 (stereo partly drawn) [Compound 273] | – | – | – | 100 to 1000 nM | < 5000 nM | < 10 nM
22 | CCn1c(-c2cccnc2[C@H](C)OC)c2c3cc(ccc31)-c1cc(O)cc(c1)C[C@H](NC(=O)[C@H](C(C)C)N(C)C(=O)CN(C)C(=O)[C@@H]1CN1CCCC#N)C(=O)N1CCC[C@H](N1)C(=O)OCC(C)(C)C2 (stereo partly drawn) [Compound 274] | – | – | – | 100 to 1000 nM | < 5000 nM | < 10 nM
